From patent publication US20250129012A1, “ANTI-INFLAMMATORY AND ANALGESIC COMPOUNDS AND USE THEREOF” (JIANGSU ATOM BIOSCIENCE AND PHARMACEUTICAL CO., LTD., priority 2021, published 2025)
Where two headings read alike, the source gives them in different places. Marks after values point to notes of the source that are not given here.

Columns and labels:
[1] = tested on: gouty arthritis rats (sodium urate, right ankle and knee joint cavities); assay: Pharmacodynamics experiment B on gouty arthritis rats: ankle swelling rate; assay type: in vivo, SD rats; settings: Rattus norvegicus, po, read-out: Swelling rate (ankle)
Experimental: (§1) Compounds 12, 16, 19, 30, 34, 36, 38, 40, 44, 48, 49, 52, 58, 69, 83, 98, 102, 119, 121, and 122 were prepared by grinding with 0.5% CMC-Na prior to administration and formulated into suspensions of appropriate concentration (0.12 mg/mL) for gavage, with an administered dose of 0.5 mL/100 g.
(§2) 240 SD rats, males, were acclimatized for one week and weighed 180-220 g. […] The dose of each compound group was 0.6 mg/kg. The compounds in each group were prepared into the corresponding concentration suspension, and the volume of administration was 10 mL/kg.
(§3) 250 mg of sodium urate were added to 9 mL of saline, and 1 mL of Tween-80 solution was added, the resulting mixture was heated and stirred to formulate 10 mL of sodium urate solution. The rats were grasped and fixed, and 0.2 mL of sodium urate solution was injected into the right ankle and knee joint cavities respectively to establish gouty arthritis rat model.
(§4) Before modeling, positive drug and tested compounds were pre-administered for 7 days, once a day, and modeling was performed on day 8, and drug administration by gavage continued for 3 days after modeling.
Before modeling and 2 h, 4 h, 8 h, 10 h, 24 h and 48 h after modeling, the circumference of the right ankle joint was measured using a soft ruler or the volume change at the ankle was measured (volumetric method), and the swelling degree and swelling rate of ankle joint were calculated:
Swelling degree (mm)=measured circumference (mm)−baseline circumference (mm)
Swelling rate (%)=swelling degree (mm)/baseline circumference (mm)×100%
(§5) Each experimental data was expressed as the mean, and intergroup comparisons were examined for significance using the ANOVA-Dunnett T-test, with P<0.05 as the significance indicator.

[2] = tested on: gouty arthritis rats (sodium urate, right ankle and knee joint cavities); assay: Pharmacodynamics experiment B on gouty arthritis rats: gait score; assay type: in vivo, SD rats; settings: for Gait Score: dose 0.6 mg/kg gavage, mean; for Gait versus model group, in words: compounds 0.6 mg/kg, colchicine 0.6 and 1.2 mg/kg
Experimental: as §1, §2, §3, §4
Gait was scored according to the modified gait grading criteria introduced by Coderre et al. The gait of each rat was observed before and 2 h, 4 h, 8 h, 10 h, 24 h and 48 h after modeling and graded scoring was performed. The gait grading criteria were as follows: 0 point, normal walking; 1 point, slight lameness, the lower limbs were slightly bent; 2 points: moderate lameness, the lower limbs just touched the ground; 3 points, severe lameness, the lower limbs left the ground, and walked on three feet. The mean score of each group was calculated and compared with that of the model group.
as §5

TNF-α = assay: Inflammatory factor experiment B: TNF-α in knee synovial tissue (ELISA); assay type: in vivo, SD rats; settings: Rattus norvegicus, po, read-out: TNF-α percentage decrease %
[3] = Acute toxicity test in mice by single administration; assay type: in vivo, ICR mice; settings: both sexes, ICR, mouse, in vivo, po; acute toxicity, mice, single gavage; read-out: Maximum tolerated dose (MTD)
Experimental: (§6) Compounds 34, 48, 55 and 58 were ground with 0.5% CMC-Na before administration, and prepared into a suspension of the corresponding concentration for gavage, with an administration volume of 0.1 mL/10 g.
(§7) ICR mice, SPF grade, weighing 18-20 g, 6-8 weeks old, were provided by Nantong University. The Laboratory Animal Production License was SCXK (Su) 2016-0010 and Laboratory Animal Use License was SYXK (Su) 2017-0035.
(§8) After overnight fasting, the drug was administered once by gavage in a volume of 0.1 mL/10 g. The normal group was given the corresponding volume of 0.5% CMC-Na solution according to body weight. The state of the animal was observed after administration, the animals were weighed daily and the number of deaths was recorded for 14 consecutive days.

ICR mice = assay: as above; assay type: in vivo; settings: 14 days, deaths/animals
Experimental: as §6, §7, §8

IL-1β = assay: Inflammatory factor experiment B: IL-1β in knee synovial tissue (ELISA); assay type: in vivo, SD rats; settings: Rattus norvegicus, po, read-out: IL-1β percentage decrease %
IL-6 = assay: Inflammatory factor experiment B: IL-6 in knee synovial tissue (ELISA); assay type: in vivo, SD rats; settings: Rattus norvegicus, po, read-out: IL-6 percentage decrease %
[4] = synovial tissue of knee joints, 48 h after modeling, dose 0.6 mg/kg

| Structure (SMILES) | Gait Score ([2]; 2 h) | Gait Score ([2]; 4 h) | Gait Score ([2]; 8 h) | Gait Score ([2]; 10 h) | Gait Score ([2]; 24 h) | Gait Score ([2]; 48 h) | Gait versus model group, in words [2] | change in vivo at 0.6 mg/kg ([1]; 2 h) [%] | change in vivo at 0.6 mg/kg ([1]; 4 h) [%] | change in vivo at 0.6 mg/kg ([1]; 8 h) [%] | change in vivo at 0.6 mg/kg ([1]; 10 h) [%] | change in vivo at 0.6 mg/kg ([1]; 24 h) [%] | change in vivo at 0.6 mg/kg ([1]; 48 h) [%] | inhibition in vivo at 0.6 mg/kg (TNF-α; 48 h) [%] | inhibition in vivo at 0.6 mg/kg (IL-1β; 48 h) [%] | inhibition in vivo at 0.6 mg/kg (IL-6; 48 h) [%] | further results |
| --- | --- | --- | --- | --- | --- | --- | --- | --- | --- | --- | --- | --- | --- | --- | --- | --- | --- |
| COC(=O)c1ccc2c(cc1=O)[C@@H](NC(C)=O)CCc1cc(OC)c(OC)c(OC)c1-2 [Compound 34, methyl (S)-7-acetamido-1,2,3-trimethoxy-9-oxo-5,6,7,9-tetrahydrobenzo[a]heptalen-10-carboxylate] | 0 | 0 | 0** | 0.1** | 0 | 0 | significant improvement in gait occurred at different time points |  |  |  |  |  |  |  |  |  | change in vivo at 0.6 mg/kg ([1]; 2 h, dose 0.6 mg/kg gavage): 3.98%; change in vivo at 0.6 mg/kg ([1]; 4 h, dose 0.6 mg/kg gavage): 8.32%; change in vivo at 0.6 mg/kg ([1]; 8 h, dose 0.6 mg/kg gavage): 16.2%; change in vivo at 0.6 mg/kg ([1]; 10 h, dose 0.6 mg/kg gavage): 17.3%; change in vivo at 0.6 mg/kg ([1]; 24 h, dose 0.6 mg/kg gavage): 21.1%; change in vivo at 0.6 mg/kg ([1]; 48 h, dose 0.6 mg/kg gavage): 9.96%; inhibition in vivo at 0.6 mg/kg (TNF-α; [4]): 82.9%; MTD at 14 days [3]: > 600 mg/kg; Mortality rate (ICR mice; single gavage dose 50 mg/kg): 0/6; Mortality rate (ICR mice; single gavage dose 100 mg/kg): 0/6; Mortality rate (ICR mice; single gavage dose 400 mg/kg): 0/6; Mortality rate (ICR mice; single gavage dose 600 mg/kg): 0/6; inhibition in vivo at 0.6 mg/kg (IL-1β; [4]): 93.1%; inhibition in vivo at 0.6 mg/kg (IL-6; [4]): 115% |
| CNC(=O)N[C@H]1CCc2cc(OC)c(OC)c(OC)c2-c2cc(C)c(OC)c(=O)cc21 [Compound 44, (S)-1-methyl-(1,2,3,10-tetramethoxy-11-methyl-9-oxo-5,6,7,9-tetrahydrobenzo[a]heptalen-7-yl)urea] | 0 | 0 | 0* | 0* | 0 | 0 |  | -9.72 | -8.92 | -6.13 | -1.47 | 3.17 | -6.2 | 72.6 | 104 | 19.7 |  |
| CNC(=O)c1cc2c(ccc1=O)-c1c(cc(OC)c(OC)c1OC)CC[C@@H]2NC(C)=O [Compound 49, (S)-7-acetamido-1,2,3-trimethoxy-N-methyl-10-oxo-5,6,7,10-tetrahydrobenzo[a]heptalen-9-carboxamide] | 0 | 0 | 0* | 0* | 0.2 | 0 | significant improvement in gait occurred at different time points | -1.02 | 7.38 | 8.12 | 16.5 | 12.9 | 1.43 | 79.2 | 69.1 | 78.6 |  |
| COc1cc2c(c(OC)c1OC)-c1ccc(S(N)(=O)=O)c(=O)cc1[C@@H](NC(C)=O)CC2 [Compound 69, (S)—N-[1,2,3-trimethoxy-9-oxo-10-aminosulfonyl-5,6,7,9-tetrahydrobenzo[a]heptalen-7-yl]acetamide] | 0 | 0 | 0* | 0* | 0 | 0 | significant improvement in gait occurred at different time points | 5.65 | 7.01 | 14.7 | 26.8 | 19 | 5.21 | 76.1 | 110 | 83 |  |
| COc1cc2c(c(OC)c1OC)-c1ccc(-n3ccc(C)n3)c(=O)cc1[C@@H](NC(C)=O)CC2 [Compound 98, (S)—N-{1,2,3-trimethoxy-10-(3-methyl-1H-pyrazol-1-yl)-9-oxo-5,6,7,9-tetrahydrobenzo[a]heptalen-7-yl}acetamide] | 0 | 0 | 0* | 0* | 0.1 | 0 | significant improvement in gait occurred at different time points | 7.9 | 13.4 | 16.4 | 17.7 | 19.7 | 8.9 | 98.9 | 65 | 167 |  |
| COc1cc2c(c(OC)c1OC)-c1ccc(-c3cnn(C)c3)c(=O)cc1[C@@H](NC(C)=O)CC2 [Compound 119, (S)—N-{1,2,3-trimethoxy-10-(1-methyl-1H-pyrazol-4-yl)-9-oxo-5,6,7,9-tetrahydrobenzo[a]heptalen-7-yl}acetamide] | 0 | 0 | 0.1* | 0.4 | 0. | 0 |  | 10.4 | 14.1 | 19.4 | 22.2 | 15.8 | 5.3 | 105 | 85.5 | 169 |  |
| CNC(=O)c1ccc2c(cc1=O)[C@@H](NC(C)=O)CCc1cc(OC)c(O)c(OC)c1-2 [Compound 121, (S)-7-acetamido-2-hydroxy-1,3-dimethoxy-N-methyl-9-oxo-5,6,7,9-tetrahydrobenzo[a]heptalen-10-carboxamide] | 0 | 0 | 0.2 | 0.2 | 0 | 0 |  | 11.8 | 15.6 | 20.9 | 22.5 | 16.3 | 9.4 | 119 | 67.7 | 231 |  |
